We go through two molecules from patent US20130288897A1, “SYNERGISTIC PESTICIDAL COMPOSITIONS” (Dow AgroSciences LLC, priority 2012, published 2013).

The structures appear in SMILES notation. Several values for one entry are separate records, joined by “and”; a condition that tells them apart may be missing. Identical values can stand only once.

In this assay the test system is cotton aphid (CA) Aphis gossypii. Description: Cotton aphid track-sprayer test on cotton: Compound A or imidacloprid with Glyphomax Plus (glyphosate) and AMS (Example XV). The class given is in vivo. Here is the method:
Glyphosate resistant cotton plants (Gossypium hirsutum, cv ‘DP493’) were trimmed to 1 true leaf and infested with mixed stages of cotton aphid (CA) Aphis gossypii 24 h prior to application. Mixed developmental stage CA were infested onto the upper surface of each treated leaf by transferring infested foliage from an insectary colony. Each plant was infested with approximately equal numbers of CA based on visual estimation of aphid density on the infested material. Infested plants were held in the growth chamber (L:D 16:8 and 25° C.). Glyphosate (Glyphomax Plus, Dow AgroSciences, LLC, Indianapolis, Ind.) was mixed with water at a rate equivalent to 32 oz/Ac/20 gallons. […] High rate Compound A concentrations were created by diluting Compound A technical material with acetone to achieve a 10 ppm solution. […] When applied through a track sprayer calibrated to 200 L/Ha these concentrations generated use rates of 0.2, 0.04 and 0.008 g/Ha. […] Nozzle height above the canopy was held constant at ca. 30 cm. Plants were evaluated after 3 days from the time of infestation by counting all live cotton aphids on each plant.
For the purposes of this experiment, the compositions having lower rates of the insecticide were not analyzed. Percent control for all treatments was calculated using the rep average for the untreated plants. […] For all tests, measured efficacy (% Control) data were compared to calculated Colby values (Colby, S. R. 1967. Calculating Synergistic and Antagonistic Responses of Herbicide Combinations. Weeds 15:20-22) using a 2 sided T-test (Minitab). […] The formula used to calculate the Colby value for mixtures of Compound A and either herbicide or AMS was:
The formula was adapted for compositions including Compound A, herbicide and AMS as follows: […]

[1] abbreviates: 0.2 g insecticide/Ha with Glyphomax Plus 0.0125 ml/ml + AMS 18 mg/ml, Rep 1-5.
The mark [2] stands for this setting: 0.2 g insecticide/Ha with Glyphomax Plus 0.0125 ml/ml, Rep 1-5.

Take `CC(c1ccc(C(F)(F)F)nc1)S(C)(=O)=NC#N` (stereo not shown) [Compound A, [1-(6-Trifluoromethylpyridin-3-yl)ethyl](methyl)-oxido-λ^4-sulfanylidenecyanamide]: the “% control Negatives to zero” value by setting is: under setting [1], 94.9% and 100.0%; under setting [2], 96.2% and 100.0% and 91.7% and 98.1%. Further, the “Calculated Colby values” is 71.7 and 78.5 and 75.1 and 77.5 and 71.8 under setting [1]; 71.7 and 78.5 and 75.1 and 75.3 and 69.3 (0.2 g insecticide/Ha with Glyphomax Plus 0.0125 ml/ml, Rep 1-5, expected additive control). Also, the percent control under setting [1] was 100.0% and 94.9%; the percent control under setting [2] was 100.0% and 91.7% and 98.1% and 96.2%; the percent control (0.2 g insecticide/Ha, no herbicide, no AMS, Rep 1-5, vs rep average of untreated plants) is 71.7% and 78.5% and 75.1% and 75.3% and 69.3%. Moreover, the “CA Counts” value (0.2 g insecticide/Ha, no herbicide, no AMS, Rep 1-5, live aphids per plant after 3 days) is 24 and 20 and 12 and 15 and 13.
As to `O=[N+]([O-])NC1=NCCN1Cc1ccc(Cl)nc1` [Imidacloprid, imidacloprid, reference compound], the “synergy assessment (measured control vs Colby values)” value (insecticide with AMS and herbicide (Glyphomax Plus)) was “not improved compared to imidacloprid alone”; the “synergy assessment (measured control vs Colby values)” value (insecticide with the herbicide (Glyphomax Plus)) is on record as “not present”.
